In assay [1] the target is T1, Sentrin-specific protease 8 (Homo sapiens, UniProt Q96LD8).
T1 sequence (Q96LD8 whole entry): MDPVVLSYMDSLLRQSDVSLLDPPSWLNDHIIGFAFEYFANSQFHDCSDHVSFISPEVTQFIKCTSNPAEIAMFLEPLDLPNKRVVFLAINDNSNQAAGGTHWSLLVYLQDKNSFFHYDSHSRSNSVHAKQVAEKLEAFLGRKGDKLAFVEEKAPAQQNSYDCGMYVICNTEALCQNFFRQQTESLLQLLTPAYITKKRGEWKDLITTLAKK
The assay can be described thus: SENP8 protease inhibitors, SAR follow-up, biochemical, luminescence (AID 504501). In kind it is functional.

The target in the next assay is T2, Caspase-3 (Homo sapiens, UniProt P42574).
T2 sequence (P42574 whole entry): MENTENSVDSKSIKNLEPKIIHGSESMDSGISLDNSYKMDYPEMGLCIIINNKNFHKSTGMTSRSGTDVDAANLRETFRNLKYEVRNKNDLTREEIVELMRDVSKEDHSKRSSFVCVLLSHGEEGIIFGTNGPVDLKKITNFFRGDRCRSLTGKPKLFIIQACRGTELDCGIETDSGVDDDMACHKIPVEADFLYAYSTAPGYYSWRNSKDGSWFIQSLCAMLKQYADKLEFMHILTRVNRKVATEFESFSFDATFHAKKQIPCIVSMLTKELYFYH
As to the kind of experiment: SAR Analysis of small molecule inhibitors of Sentrin-specific proteases (SENPs) using a Caspase-3 Selectivity assay. [Related pubchem assays (depositor defined):AID2540, AID2599, AID434973, AID489001]. In kind it is functional.

In assay [2] the target is T3, Sentrin-specific protease 6 (Homo sapiens, UniProt Q9GZR1).
T3 sequence (Q9GZR1 whole entry): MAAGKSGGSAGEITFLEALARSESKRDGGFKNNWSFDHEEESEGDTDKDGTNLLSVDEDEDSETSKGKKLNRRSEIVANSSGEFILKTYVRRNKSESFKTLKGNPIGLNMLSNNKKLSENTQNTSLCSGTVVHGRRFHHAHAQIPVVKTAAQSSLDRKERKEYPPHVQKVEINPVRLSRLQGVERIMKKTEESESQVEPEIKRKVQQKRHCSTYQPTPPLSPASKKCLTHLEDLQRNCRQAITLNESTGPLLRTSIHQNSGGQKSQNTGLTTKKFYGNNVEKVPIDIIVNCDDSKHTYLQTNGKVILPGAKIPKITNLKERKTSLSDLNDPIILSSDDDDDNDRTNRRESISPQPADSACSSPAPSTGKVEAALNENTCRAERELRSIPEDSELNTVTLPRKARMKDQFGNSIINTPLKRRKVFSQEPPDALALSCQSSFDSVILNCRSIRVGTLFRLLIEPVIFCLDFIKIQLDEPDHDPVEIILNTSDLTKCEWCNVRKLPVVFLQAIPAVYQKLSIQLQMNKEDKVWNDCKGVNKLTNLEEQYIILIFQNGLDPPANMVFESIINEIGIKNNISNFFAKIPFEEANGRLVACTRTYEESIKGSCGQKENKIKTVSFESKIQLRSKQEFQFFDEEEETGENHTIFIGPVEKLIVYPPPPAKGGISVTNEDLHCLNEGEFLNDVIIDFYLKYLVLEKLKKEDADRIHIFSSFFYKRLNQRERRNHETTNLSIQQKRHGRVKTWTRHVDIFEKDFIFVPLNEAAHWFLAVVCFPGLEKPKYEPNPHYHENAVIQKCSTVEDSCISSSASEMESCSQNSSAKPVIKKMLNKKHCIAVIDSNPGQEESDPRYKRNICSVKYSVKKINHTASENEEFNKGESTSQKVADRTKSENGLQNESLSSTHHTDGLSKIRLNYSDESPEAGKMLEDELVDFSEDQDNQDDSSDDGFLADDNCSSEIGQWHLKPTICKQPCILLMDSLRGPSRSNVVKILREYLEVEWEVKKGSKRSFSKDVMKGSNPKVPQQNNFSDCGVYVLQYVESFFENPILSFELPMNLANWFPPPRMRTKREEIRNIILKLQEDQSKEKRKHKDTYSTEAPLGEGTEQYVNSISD
As to the kind of experiment: SAR Analysis of small molecule inhibitors of Sentrin-specific protease 6 (SENP6) using a Luminescent assay. [Related pubchem assays (depositor defined):AID2582, AID2599]. It counts as functional.

Assay [3] concerns the target T4, Sentrin-specific protease 7 (Homo sapiens, UniProt Q9BQF6).
T4 sequence (Q9BQF6 whole entry): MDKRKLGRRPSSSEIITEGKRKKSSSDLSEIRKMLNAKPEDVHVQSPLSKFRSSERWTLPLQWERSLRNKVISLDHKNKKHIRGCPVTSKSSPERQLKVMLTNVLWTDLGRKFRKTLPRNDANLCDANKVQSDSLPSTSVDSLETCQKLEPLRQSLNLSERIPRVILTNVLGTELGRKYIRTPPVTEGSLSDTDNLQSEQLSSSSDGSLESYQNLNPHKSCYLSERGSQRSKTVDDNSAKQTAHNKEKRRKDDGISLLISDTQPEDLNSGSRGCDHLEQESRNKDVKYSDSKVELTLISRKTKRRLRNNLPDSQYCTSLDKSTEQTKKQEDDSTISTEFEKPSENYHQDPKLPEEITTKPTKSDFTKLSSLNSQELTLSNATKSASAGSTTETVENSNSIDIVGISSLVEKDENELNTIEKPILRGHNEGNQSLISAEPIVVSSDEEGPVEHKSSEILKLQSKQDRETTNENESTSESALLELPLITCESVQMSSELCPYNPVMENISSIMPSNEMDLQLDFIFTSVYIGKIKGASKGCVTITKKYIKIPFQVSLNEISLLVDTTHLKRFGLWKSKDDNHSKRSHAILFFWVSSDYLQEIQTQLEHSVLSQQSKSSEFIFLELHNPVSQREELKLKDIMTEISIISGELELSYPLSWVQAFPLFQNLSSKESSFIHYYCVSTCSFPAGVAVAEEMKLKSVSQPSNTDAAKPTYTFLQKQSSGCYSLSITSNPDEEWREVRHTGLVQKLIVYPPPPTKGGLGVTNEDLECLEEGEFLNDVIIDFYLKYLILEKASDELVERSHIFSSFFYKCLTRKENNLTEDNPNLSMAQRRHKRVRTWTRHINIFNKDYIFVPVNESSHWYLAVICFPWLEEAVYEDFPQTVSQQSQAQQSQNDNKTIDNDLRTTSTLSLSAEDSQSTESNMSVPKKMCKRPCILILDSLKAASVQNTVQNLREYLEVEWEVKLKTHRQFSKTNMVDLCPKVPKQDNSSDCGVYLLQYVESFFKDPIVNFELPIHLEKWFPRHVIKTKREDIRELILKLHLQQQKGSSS
As to the kind of experiment: SENP7 protease inhibitors, SAR follow-up, biochemical, luminescence (AID 504497). In kind it is functional.

A further assay concerns the target Nonstructural protein 1 (Influenza A virus, UniProt Q194T2). In kind it is functional, Influenza A virus (A/California/07/2009(H1N1)).
Assay [4] deals with T5, High affinity choline transporter 1 (Homo sapiens, UniProt Q9GZV3).
T5 sequence (Q9GZV3 whole entry): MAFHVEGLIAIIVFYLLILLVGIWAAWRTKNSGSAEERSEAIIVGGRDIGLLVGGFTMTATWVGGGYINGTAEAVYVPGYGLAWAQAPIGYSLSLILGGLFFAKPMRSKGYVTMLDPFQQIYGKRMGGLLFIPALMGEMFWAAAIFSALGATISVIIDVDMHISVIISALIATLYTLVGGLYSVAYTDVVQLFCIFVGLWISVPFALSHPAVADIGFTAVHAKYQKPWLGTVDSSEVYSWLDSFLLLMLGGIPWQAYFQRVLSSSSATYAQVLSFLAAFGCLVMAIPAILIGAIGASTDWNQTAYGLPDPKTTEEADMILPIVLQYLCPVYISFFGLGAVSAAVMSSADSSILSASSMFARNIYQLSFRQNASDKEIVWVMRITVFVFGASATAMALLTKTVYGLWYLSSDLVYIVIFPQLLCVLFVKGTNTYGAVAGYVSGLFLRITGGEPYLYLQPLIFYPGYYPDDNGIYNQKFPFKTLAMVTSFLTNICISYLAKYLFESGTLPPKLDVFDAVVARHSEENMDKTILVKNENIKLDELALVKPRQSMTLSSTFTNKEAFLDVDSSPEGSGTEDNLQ
As to the kind of experiment: CHT inhibitors, dose response, cell-based, 5-point CRC, membrane potential dye (AID 504840). It counts as functional.

For assay [5], the target named is 26S proteasome non-ATPase regulatory subunit 14 (Homo sapiens, UniProt O00487). The assay can be described thus: inhibition of proteasome subunit RPN11 – biochemical, fluorescence polarization, uHTS hits, confirmation (AID 602368). It counts as functional. A general note: Polarisation of emitted light reports the rotation of a fluorescent probe.
In assay [6] the target is 72 kDa type IV collagenase (Homo sapiens, UniProt P08253). The assay can be described thus: Dose Response validation of uHTS RPN11 inhibitor hits using a MMP-2 Fluorescence assay. It counts as functional.
A further assay has as its target Prothrombin (Bos taurus, UniProt P00735). The assay can be described thus: thrombin inhibition, dose response, biochemical, fluorescence polarization, uHTS hits (AID 602369). In kind it is functional.
Assay [7] concerns the target T6, Short transient receptor potential channel 4 (Mus musculus, UniProt Q9QUQ5).
T6 sequence (Q9QUQ5 whole entry): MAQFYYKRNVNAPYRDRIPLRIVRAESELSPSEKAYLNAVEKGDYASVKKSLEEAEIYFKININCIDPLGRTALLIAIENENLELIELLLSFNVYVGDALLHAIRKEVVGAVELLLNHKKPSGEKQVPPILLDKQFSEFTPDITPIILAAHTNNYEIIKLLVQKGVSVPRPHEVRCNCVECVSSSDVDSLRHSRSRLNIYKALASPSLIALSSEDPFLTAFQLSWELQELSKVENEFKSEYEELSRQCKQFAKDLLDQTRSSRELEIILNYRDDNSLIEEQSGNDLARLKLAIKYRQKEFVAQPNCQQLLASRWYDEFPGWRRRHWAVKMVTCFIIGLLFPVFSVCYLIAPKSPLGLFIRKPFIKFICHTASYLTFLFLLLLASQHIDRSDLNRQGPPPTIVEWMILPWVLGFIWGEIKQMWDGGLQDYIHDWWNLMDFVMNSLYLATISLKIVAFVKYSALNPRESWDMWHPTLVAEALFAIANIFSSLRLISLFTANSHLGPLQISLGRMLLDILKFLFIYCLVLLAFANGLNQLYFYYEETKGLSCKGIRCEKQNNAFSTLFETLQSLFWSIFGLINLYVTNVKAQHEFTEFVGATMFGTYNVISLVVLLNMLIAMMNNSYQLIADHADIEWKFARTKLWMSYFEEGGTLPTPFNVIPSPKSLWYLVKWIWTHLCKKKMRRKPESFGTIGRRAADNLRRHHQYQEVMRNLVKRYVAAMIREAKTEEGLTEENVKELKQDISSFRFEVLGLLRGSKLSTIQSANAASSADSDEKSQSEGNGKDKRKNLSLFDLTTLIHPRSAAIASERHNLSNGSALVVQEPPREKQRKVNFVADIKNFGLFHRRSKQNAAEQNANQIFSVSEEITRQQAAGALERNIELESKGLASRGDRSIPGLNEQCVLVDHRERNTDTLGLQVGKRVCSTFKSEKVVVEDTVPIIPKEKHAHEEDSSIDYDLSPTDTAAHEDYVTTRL
The assay can be described thus: mouse TRPC4 channel activators, dose response, cell-based, HEK293 TRPC4/mu-opioid, Fluo-4 calcium (AID 434937). It counts as functional.

A further assay has as its target Melanocortin receptor 4 (Homo sapiens, UniProt P32245). The assay can be described thus: MC4R antagonist potency on cAMP, dose response, cell-based, TR-FRET, biased antagonists (AID 602298).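 Further: antagonist potency against agonist-stimulated cAMP production.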 In kind it is functional. In general terms: TR-FRET usually uses a lanthanide donor and a delayed reading to cut background.
Assay [8] can be described thus: nonselective inhibitors of cellular cAMP signaling, dose response, counter-screen for MC4R biased antagonist project, cell-based, TR-FRET cAMP detection (AID 602305).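 Further: U2OS cells stimulated with forskolin near its EC80 as the cAMP inducer; potency is for inhibition of forskolin-stimulated cAMP signaling.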 In kind it is functional.

This is an account of results in ChEMBL document CHEMBL1201862, “PubChem BioAssay data set” (2004).

The source made the active and inactive calls.

26S proteasome non-ATPase regulatory subunit 14, sequence (O00487 whole entry): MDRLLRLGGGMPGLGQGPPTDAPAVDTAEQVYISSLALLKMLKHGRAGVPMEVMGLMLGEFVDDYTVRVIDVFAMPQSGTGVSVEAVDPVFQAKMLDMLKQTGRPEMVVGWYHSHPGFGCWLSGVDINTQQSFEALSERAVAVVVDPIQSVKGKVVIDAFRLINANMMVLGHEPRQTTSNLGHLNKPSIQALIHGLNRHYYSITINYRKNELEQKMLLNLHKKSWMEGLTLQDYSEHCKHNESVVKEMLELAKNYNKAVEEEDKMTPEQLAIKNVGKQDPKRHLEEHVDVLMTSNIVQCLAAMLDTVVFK
72 kDa type IV collagenase, sequence (P08253 whole entry): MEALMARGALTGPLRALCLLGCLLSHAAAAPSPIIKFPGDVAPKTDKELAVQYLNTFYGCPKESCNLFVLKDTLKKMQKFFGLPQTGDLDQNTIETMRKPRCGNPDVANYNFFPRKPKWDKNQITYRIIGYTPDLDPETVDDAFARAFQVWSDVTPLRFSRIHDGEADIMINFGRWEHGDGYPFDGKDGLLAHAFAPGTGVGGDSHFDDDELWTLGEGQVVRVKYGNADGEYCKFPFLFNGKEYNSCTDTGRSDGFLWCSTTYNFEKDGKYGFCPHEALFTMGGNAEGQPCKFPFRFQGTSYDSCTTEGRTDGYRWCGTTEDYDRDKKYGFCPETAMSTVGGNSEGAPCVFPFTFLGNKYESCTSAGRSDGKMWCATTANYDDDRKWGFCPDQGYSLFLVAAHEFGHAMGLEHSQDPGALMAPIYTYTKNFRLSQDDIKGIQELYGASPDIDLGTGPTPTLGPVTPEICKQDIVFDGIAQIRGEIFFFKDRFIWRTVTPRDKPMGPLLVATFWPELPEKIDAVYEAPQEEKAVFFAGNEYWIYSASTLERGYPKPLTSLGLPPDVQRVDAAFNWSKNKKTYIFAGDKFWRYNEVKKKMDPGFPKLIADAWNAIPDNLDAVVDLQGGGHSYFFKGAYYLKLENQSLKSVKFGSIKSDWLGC
Melanocortin receptor 4, sequence (P32245 whole entry): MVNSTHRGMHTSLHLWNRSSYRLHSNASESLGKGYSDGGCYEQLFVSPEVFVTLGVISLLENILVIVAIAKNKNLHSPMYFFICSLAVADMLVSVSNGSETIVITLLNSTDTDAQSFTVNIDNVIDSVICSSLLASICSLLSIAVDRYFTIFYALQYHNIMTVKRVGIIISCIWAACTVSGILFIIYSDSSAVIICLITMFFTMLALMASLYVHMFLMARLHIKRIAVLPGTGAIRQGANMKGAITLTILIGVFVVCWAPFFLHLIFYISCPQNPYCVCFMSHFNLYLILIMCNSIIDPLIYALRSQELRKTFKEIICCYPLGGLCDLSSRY
Nonstructural protein 1, sequence (Q194T2 whole entry): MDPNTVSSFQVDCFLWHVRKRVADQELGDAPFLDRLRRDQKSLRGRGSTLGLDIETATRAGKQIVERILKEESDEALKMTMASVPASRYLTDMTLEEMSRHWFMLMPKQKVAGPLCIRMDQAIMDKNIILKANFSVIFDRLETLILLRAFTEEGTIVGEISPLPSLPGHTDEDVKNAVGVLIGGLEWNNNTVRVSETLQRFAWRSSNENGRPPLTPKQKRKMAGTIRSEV

As for `CN(C)S(=O)(=O)c1ccc2nc(NC(=O)c3sc4ccccc4c3Cl)sc2c1`, the IC50 (in assay [1]; on Caspase-3; in assay [2]; in [3]) was > 99 µM (inactive) each time.

In the case of `COc1cccc(-c2nn(-c3ccccc3)cc2/C=C(\C#N)C(=O)NCCCn2ccnc2)c1`, the half-inhibitory concentration (IC50) (commonly the concentration that gives 50% inhibition) on Nonstructural protein 1 is 74.2 µM (active); in assay [4], 10.5 µM (active); in [5] it was 38.9 µM (active); in assay [6], > 100 µM (inactive); at Prothrombin it was 44.4 µM (active).

For the compound `CCOC(=O)c1c(C)[nH]c(C(=O)OCC(=O)N(CC(C)C)c2c(N)n(Cc3ccccc3)c(=O)[nH]c2=O)c1C`, the IC50 in assay [5] was 31.8 µM (active); in assay [6], > 100 µM (inactive); at Prothrombin, 33.7 µM (active).

On to `C(=N/Nc1cc(N2CCCCCC2)nc(N2CCCCCC2)n1)/c1ccccc1`, for which the IC50 is > 99 µM (inactive) in [1], > 99 µM (inactive) at Caspase-3, 64.6 µM (active) in assay [2] and > 99 µM (inactive) in assay [3].

Turning to `Cc1nc(SCc2nc3cc(Cl)c(F)cc3[nH]2)c2oc3ccccc3c2n1`, the IC50 was 38.1 µM (active) in [5], > 100 µM (inactive) in assay [6] and 42.5 µM (active) on Prothrombin.

As for `CC(C)C1CC(CCNCc2ccc3c(c2)OCO3)(c2ccccc2)CCO1` (configuration not stated), the EC50 (usually the midpoint of the concentration-response curve) in assay [7] was 5.96 µM (active). The IC50 (on Melanocortin receptor 4; in assay [8]) was > 64.6 µM (inactive) in each case.
